Assay results as given in patent US11000033B2, “Ketone or oxime compound, and herbicide” (NISSAN CHEMICAL CORPORATION, priority 2014, dated 2021).

Key:
Assay type in all cases: in vivo
Leptochloa chinensis = experiment: Test Example 3: herbicidal effect by foliage application, Wagner pot (symbol D); conditions: application herbicide amount 320 g/ha
How it was run: (§1)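 Herbicidal activity was rated three weeks after a foliar spray of diluted emulsion concentrate, applied at a predetermined dose to plants grown for 14 days from seed in waterlogged alluvial soil within a 25–30 °C greenhouse.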

Lolium multiflorum Lam. = experiment: Test Example 4: herbicidal effect by soil treatment (symbol K); conditions: application herbicide amount 320 g/ha
How it was run: (§2)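 Seeds were sown in sterilized diluvial soil, covered with about 1.5 cm of soil, and the soil surface was sprayed with a water-diluted emulsion of the compound at a predetermined rate. Plants grew in a greenhouse at 25° C. to 30° C.; effects were scored visually 3 weeks after application.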

Alopecurus myosuroides = experiment: Test Example 5: herbicidal effect by foliage application, plastic box (symbol J); conditions: 320 g/ha, 3 weeks after application
How it was run: (§3)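 Greenhouse foliar test: seedlings at 14 days, grown 25° C. to 30° C. in sterilized diluvial soil; compound applied as an aqueous dilution of an emulsion; response read 3 weeks after spraying.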

rice plant = experiment: Test Example 5: effect on crop by foliage application, plastic box (symbol b); conditions: 320 g/ha, 3 weeks after application
How it was run: (§4)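 Soil: sterilized diluvial. Container: plastic box, 21 × 13 cm, 7 cm deep. Sowing: spot-like, ~1.5 cm cover. Growth: greenhouse, 25° C. to 30° C.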

Chenopodium album [1] = experiment: Test Example 4: herbicidal effect by soil treatment (symbol O); conditions: application herbicide amount 320 g/ha
How it was run: as §2

Chenopodium album [2] = experiment: Test Example 5: herbicidal effect by foliage application, plastic box (symbol O); conditions: 320 g/ha, 3 weeks after application
How it was run: as §3

Veronica persica = experiment: Test Example 5: herbicidal effect by foliage application, plastic box (symbol R); conditions: 320 g/ha, 3 weeks after application
How it was run: as §3

Stellaria media = experiment: Test Example 5: herbicidal effect by foliage application, plastic box (symbol P); conditions: 320 g/ha, 3 weeks after application
How it was run: as §3

soybean = experiment: Test Example 5: effect on crop by foliage application, plastic box (symbol d); conditions: 320 g/ha, 3 weeks after application
How it was run: as §4

Galium spurium = experiment: Test Example 5: herbicidal effect by foliage application, plastic box (symbol Q); conditions: 320 g/ha, 3 weeks after application
How it was run: as §3

Amaranthus retroflexus = experiment: Test Example 4: herbicidal effect by soil treatment (symbol N); conditions: application herbicide amount 320 g/ha
How it was run: as §2

beet = experiment: Test Example 4: effect on crop by soil treatment (symbol f); conditions: application herbicide amount 320 g/ha
How it was run: (§5)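 Soil-treatment setup: crop and weed seeds were spot-sown into sterilized diluvial soil, then buried beneath approximately 1.5 cm of it, and the boxes were housed in a 25–30° C. greenhouse.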

Digitaria ciliaris = experiment: Test Example 4: herbicidal effect by soil treatment (symbol F); conditions: application herbicide amount 320 g/ha
How it was run: as §2

[3] = test system: Echinochloa crus-galli var. crus-galli; experiment: Test Example 4: herbicidal effect by soil treatment (symbol H); conditions: application herbicide amount 320 g/ha
How it was run: as §2

Scirpus juncoides = experiment: Test Example 1: herbicidal activity, application before weed generation in submerged conditions (symbol B); conditions: application herbicide amount 320 g/ha
How it was run: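 Weed control was rated three weeks after treatment on a 0–5 scale, from 5% or lower up to 90% or more. Pre-emergence water-surface application of diluted emulsion at a predetermined rate was made on the day of sowing, in flooded (4 cm water) pots containing rice seedlings, kept at 25–30 °C under glass.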

Cyperus difformis = experiment: Test Example 3: herbicidal effect by foliage application, Wagner pot (symbol E); conditions: application herbicide amount 320 g/ha
How it was run: as §1

Setaria viridis = experiment: Test Example 5: herbicidal effect by foliage application, plastic box (symbol G); conditions: 320 g/ha, 3 weeks after application
How it was run: as §3

Abutilon theophrasti = experiment: Test Example 5: herbicidal effect by foliage application, plastic box (symbol M); conditions: 320 g/ha, 3 weeks after application
How it was run: as §3

rice = experiment: Test Example 4: effect on crop by soil treatment (symbol b); conditions: application herbicide amount 320 g/ha
How it was run: as §5

| SMILES | herbicidal effect on D (Leptochloa chinensis), grade 0-5 (Leptochloa chinensis) | K: Lolium multiflorum Lam., herbicidal effect grade (Lolium multiflorum Lam.) | J: Alopecurus myosuroides, herbicidal effect grade (Alopecurus myosuroides) | b: directly sowed rice plant, effect on crop grade (rice plant) | O: Chenopodium album, herbicidal effect grade (Chenopodium album [1]) | O: Chenopodium album, herbicidal effect grade (Chenopodium album [2]) | R: Veronica persica, herbicidal effect grade (Veronica persica) | P: Stellaria media, herbicidal effect grade (Stellaria media) | d: soybean, effect on crop grade (soybean) | Q: Galium spurium, herbicidal effect grade (Galium spurium) | N: Amaranthus retroflexus, herbicidal effect grade (Amaranthus retroflexus) | f: beet, effect on crop grade (beet) | F: Digitaria ciliaris, herbicidal effect grade (Digitaria ciliaris) | H: Echinochloa crus-galli var. crus-galli, herbicidal effect grade [3] | Herbicidal effect grade, B: Scirpus juncoides (Scirpus juncoides) | herbicidal effect on E, grade 0-5 (Cyperus difformis) | G: Setaria viridis, herbicidal effect grade (Setaria viridis) | M: Abutilon theophrasti, herbicidal effect grade (Abutilon theophrasti) | b: directly sowed rice plant, effect on crop grade (rice) |
| --- | --- | --- | --- | --- | --- | --- | --- | --- | --- | --- | --- | --- | --- | --- | --- | --- | --- | --- | --- |
| CCOC(=O)C(CC)(C(C)=O)C1CC(O)=C(c2c(C)cc(C)cc2C)C1=O (stereo not shown) [2-012] | 0 (Herbicidal ratio of 5% or lower (almost no effect)) | 0 (Herbicidal ratio of 5% or lower (almost no effect)) | 1 (Herbicidal ratio of 5% or higher and lower than 20%) | 4 (Herbicidal ratio of 70% or higher and lower than 90%) | 0 (Herbicidal ratio of 5% or lower (almost no effect)) | 0 (Herbicidal ratio of 5% or lower (almost no effect)) | 0 (Herbicidal ratio of 5% or lower (almost no effect)) | 0 (Herbicidal ratio of 5% or lower (almost no effect)) | 0 (Herbicidal ratio of 5% or lower (almost no effect)) | 0 (Herbicidal ratio of 5% or lower (almost no effect)) | 0 (Herbicidal ratio of 5% or lower (almost no effect)) | 0 (Herbicidal ratio of 5% or lower (almost no effect)) | 0 (Herbicidal ratio of 5% or lower (almost no effect)) | 0 (Herbicidal ratio of 5% or lower (almost no effect)) | 0 (Herbicidal ratio of 5% or lower (almost no effect)) | 0 (Herbicidal ratio of 5% or lower (almost no effect)) | 0 (Herbicidal ratio of 5% or lower (almost no effect)) | 0 (Herbicidal ratio of 5% or lower (almost no effect)) | 0 (Herbicidal ratio of 5% or lower (almost no effect)) |
| CCOC(=O)C(C(=O)c1ccccn1)C1CC(O)=C(c2c(C)cc(C)cc2C)C1=O (stereo not shown) [2-013] | 0 (Herbicidal ratio of 5% or lower (almost no effect)) | 1 (Herbicidal ratio of 5% or higher and lower than 20%) | 5 (Herbicidal ratio of 90% or more (almost completely withered)) | 5 (Herbicidal ratio of 90% or more (almost completely withered)) | 0 (Herbicidal ratio of 5% or lower (almost no effect)) | 1 (Herbicidal ratio of 5% or higher and lower than 20%) | 2 (Herbicidal ratio of 20% or higher and lower than 40%) | 1 (Herbicidal ratio of 5% or higher and lower than 20%) | 0 (Herbicidal ratio of 5% or lower (almost no effect)) | 1 (Herbicidal ratio of 5% or higher and lower than 20%) | 0 (Herbicidal ratio of 5% or lower (almost no effect)) | 0 (Herbicidal ratio of 5% or lower (almost no effect)) | 1 (Herbicidal ratio of 5% or higher and lower than 20%) | 1 (Herbicidal ratio of 5% or higher and lower than 20%) | 0 (Herbicidal ratio of 5% or lower (almost no effect)) | 0 (Herbicidal ratio of 5% or lower (almost no effect)) | 5 (Herbicidal ratio of 90% or more (almost completely withered)) | 0 (Herbicidal ratio of 5% or lower (almost no effect)) | 5 (Herbicidal ratio of 90% or more (almost completely withered)) |
| COC(=O)C(C(=O)C1CC1)C1CC(O)=C(c2c(C)cc(C)cc2C)C1=O (stereo not shown) [2-014] | 4 (Herbicidal ratio of 70% or higher and lower than 90%) | 4 (Herbicidal ratio of 70% or higher and lower than 90%) | 5 (Herbicidal ratio of 90% or more (almost completely withered)) | 5 (Herbicidal ratio of 90% or more (almost completely withered)) | 0 (Herbicidal ratio of 5% or lower (almost no effect)) | 0 (Herbicidal ratio of 5% or lower (almost no effect)) | 3 (Herbicidal ratio of 40% or higher and lower than 70%) | 0 (Herbicidal ratio of 5% or lower (almost no effect)) | 0 (Herbicidal ratio of 5% or lower (almost no effect)) | 0 (Herbicidal ratio of 5% or lower (almost no effect)) | 0 (Herbicidal ratio of 5% or lower (almost no effect)) | 0 (Herbicidal ratio of 5% or lower (almost no effect)) | 5 (Herbicidal ratio of 90% or more (almost completely withered)) | 5 (Herbicidal ratio of 90% or more (almost completely withered)) | 3 (Herbicidal ratio of 40% or higher and lower than 70%) | 5 (Herbicidal ratio of 90% or more (almost completely withered)) | 5 (Herbicidal ratio of 90% or more (almost completely withered)) | 3 (Herbicidal ratio of 40% or higher and lower than 70%) | 5 (Herbicidal ratio of 90% or more (almost completely withered)) |
| Cc1cc(C)c(C2=C(O)CC(CC(=O)Cc3ccccc3)C2=O)c(C)c1 (stereo not shown) [2-015] | 0 (Herbicidal ratio of 5% or lower (almost no effect)) | 5 (Herbicidal ratio of 90% or more (almost completely withered)) | 5 (Herbicidal ratio of 90% or more (almost completely withered)) | 5 (Herbicidal ratio of 90% or more (almost completely withered)) | 0 (Herbicidal ratio of 5% or lower (almost no effect)) | 0 (Herbicidal ratio of 5% or lower (almost no effect)) | 0 (Herbicidal ratio of 5% or lower (almost no effect)) | 0 (Herbicidal ratio of 5% or lower (almost no effect)) | 1 (Herbicidal ratio of 5% or higher and lower than 20%) | 0 (Herbicidal ratio of 5% or lower (almost no effect)) | 0 (Herbicidal ratio of 5% or lower (almost no effect)) | 0 (Herbicidal ratio of 5% or lower (almost no effect)) | 3 (Herbicidal ratio of 40% or higher and lower than 70%) | 1 (Herbicidal ratio of 5% or higher and lower than 20%) | 4 (Herbicidal ratio of 70% or higher and lower than 90%) | 0 (Herbicidal ratio of 5% or lower (almost no effect)) | 5 (Herbicidal ratio of 90% or more (almost completely withered)) | 1 (Herbicidal ratio of 5% or higher and lower than 20%) | 4 (Herbicidal ratio of 70% or higher and lower than 90%) |
